We go through 7 compounds from patent publication US10335409B2 (priority 2012, dated 2019).

Holding throughout (format): cell-based, hepatitis C virus
In assay [1] the test system is genotype 2a (JFH-1) stable HCV replicon in Huh-7-derived cells. The experiment in a line: Stable subgenomic HCV replicon EC50, genotype 2a (Renilla luciferase). The conditions noted are these: Hepatitis C virus, stable replicon genotype 2a, 72 h, read-out: EC50 2A RLUC. A digest of the protocol:
(§1)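 Compounds, three-fold diluted, were applied to Huh-7-derived cells harbouring luciferase replicons (genotype 1a H77, 1b Con1, 2a JFH-1, 4a ED43, with strain-specific adaptive mutations). Seventy-two hours later, intracellular replication was gauged by Renilla luciferase activity and EC50 derived by regression.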

In assay [2] the test system is genotype 1b (Con1) wild type transient HCV replicon in Huh-7-derived cells. The experiment in a line: Transient-transfected HCV replicon EC50, genotype 1b wild type. The conditions noted are these: Hepatitis C virus, 72 h, read-out: EC50 1B WT.
Assay [3] relates to genotype 1a NS3/4a protease inhibitor resistant variant R155K transient HCV replicon in Huh-7-derived cells. As to the kind of experiment: Transient-transfected HCV replicon EC50, genotype 1a R155K. The conditions noted are these: Hepatitis C virus, 72 h, read-out: EC50 1A R155K, transient-transfected replicon genotype 1a R155K resistant variant, 72 h.
For assay [4], the system named is genotype 1a (H77) stable HCV replicon in Huh-7-derived cells. The experiment in a line: Stable subgenomic HCV replicon EC50, genotype 1a (Renilla luciferase). The conditions noted are these: Hepatitis C virus, stable replicon genotype 1a, 72 h, read-out: EC50 1A RLUC. A digest of the protocol: as §1
In assay [5] the test system is genotype 1a (H77) wild type transient HCV replicon in Huh-7-derived cells. As to the kind of experiment: Transient-transfected HCV replicon EC50, genotype 1a wild type. The conditions noted are these: Hepatitis C virus, 72 h, read-out: EC50 1A WT.
Assay [6] concerns genotype 4a (ED43) stable HCV replicon in Huh-7-derived cells. The experiment in a line: Stable subgenomic HCV replicon EC50, genotype 4a (Renilla luciferase). The conditions noted are these: Hepatitis C virus, 72 h, read-out: EC50 4A RLUC. Put shortly:
as §1

In assay [7] the test system is genotype 3a (S52) stable HCV replicon in Huh-7-derived cells. The experiment in a line: Stable subgenomic HCV replicon EC50, genotype 3a (Renilla luciferase). The conditions noted are these: Hepatitis C virus, 72 h, read-out: EC50 3A RLUC.
Assay [8] has as its system genotype 1b (Con1) stable HCV replicon in Huh-7-derived cells. The experiment in a line: Stable subgenomic HCV replicon EC50, genotype 1b (Renilla luciferase). The conditions noted are these: Hepatitis C virus, stable replicon genotype 1b, 72 h, read-out: EC50 1B RLUC. Put shortly: as §1
The test system of assay [9] is genotype 1b NS3/4a protease inhibitor resistant variant D168A transient HCV replicon in Huh-7-derived cells. As to the kind of experiment: Transient-transfected HCV replicon EC50, genotype 1b D168A. The conditions noted are these: Hepatitis C virus, 72 h, read-out: EC50 1B D168A, transient-transfected replicon genotype 1b D168A resistant variant, 72 h.
In assay [10] the test system is genotype 3a (S52) wild type transient HCV replicon in Huh-7-derived cells. As to the kind of experiment: Transient-transfected HCV replicon EC50, genotype 3a wild type. The conditions noted are these: Hepatitis C virus, 72 h, read-out: EC50 3A WT.
Where [11] appears, read: transient-transfected replicon genotype 1b wild type.
The mark [12] stands for this setting: transient-transfected replicon genotype 1a wild type.
[13] abbreviates: transient-transfected replicon genotype 3a wild type.

Like-named read-outs stand apart in the source and are kept apart here.

As for `CC[C@@H]1[C@@H]2CN(C(=O)[C@H](C(C)(C)C)NC(=O)O[C@@H]3C[C@H]3CCCCC(F)(F)c3nc4ccccc4nc3O2)[C@@H]1C(=O)N[C@]1(C(=O)NS(=O)(=O)C2CC2)C[C@H]1CC` [Example 54, (1aR,5S,8S,9S,10R,22aR)-5-tert-butyl-N-{(1R,2R)-1-[(cyclopropylsulfonyl)carbamoyl]-2-ethylcyclopropyl}-9-ethyl-18,18-difluoro-3,6-dioxo-1,1a,3,4,5,6,9,10,18,19,20,21,22,22a-tetradecahydro-8H-7,10-methanocyclopropa[18,19][1,10,3,6]dioxadiazacyclononadecino[11,12-b]quinoxaline-8-carboxamide], the EC50 in [1] turned out to be 76 nM; in assay [2] (setting [11]), 10 nM; in assay [3], 27 nM; in [4], 33 nM; in [5] (setting [12]) it was 19 nM; in [6], 13 nM. For the same compound, the EC50 in assay [7] was found to be 260 nM; in [8], 18 nM; in assay [9] it was 123 nM; in [10] (setting [13]), 147 nM.

With `CC[C@@H]1[C@@H]2CN(C(=O)[C@H](C(C)(C)C)NC(=O)O[C@]3(C)CCC[C@H]3CCCCCc3nc4ccc(OC)cc4nc3O2)[C@@H]1C(=O)N[C@]1(C(=O)NS(=O)(=O)C2(C)CC2)C[C@H]1CC` [Example 56, (3aR,7S,10S,11S,12R,24aR)-7-tert-butyl-11-ethyl-N-[(1R,2R)-2-ethyl-1-{[(1-methylcyclopropyl)sulfonyl]carbamoyl}cyclopropyl]-16-methoxy-3a-methyl-5,8-dioxo-1,2,3,3a,5,6,7,8,11,12,20,21,22,23,24,24a-hexadecahydro-10H-9,12-methanocyclopenta[18,19][1,10,3,6]dioxadiazacyclononadecino[11,12-b]quinoxaline-10-carboxamide], the EC50 in [1] turned out to be 57 nM; in assay [2] (setting [11]), 59 nM; in assay [3], 168 nM; in assay [4], 41 nM; in assay [5] (setting [12]), 63 nM; in assay [6], 57 nM. Also, the EC50 in [7] amounted to 1030 nM; in assay [8], 37 nM; in assay [9], 252 nM; in [10] (setting [13]), 226 nM.

Consider `COc1ccc2nc3c(nc2c1)O[C@H]1CN(C(=O)[C@H](C(C)(C)C)NC(=O)O[C@@H]2C[C@@H]4C[C@@H]4[C@H]2CCCCC3)[C@H](C(=O)N[C@]2(C(=O)NS(=O)(=O)C3CC3)C[C@H]2CC(F)F)[C@@H]1C` [Example 57, (1aS,2aR,6S,9S,10S,11R,23aR,23bS)-6-tert-butyl-N-[(1R,2S)-1-[(cyclopropylsulfonyl)carbamoyl]-2-(2,2-difluoroethyl)cyclopropyl]-15-methoxy-10-methyl-4,7-dioxo-1a,2,2a,4,5,6,7,10,11,19,20,21,22,23,23a,23b-hexadecahydro-1H,9H-8,11-methanocyclopropa[4′,5′]cyclopenta[1′,2′:18,19][1,10,3,6]dioxadiazacyclononadecino[11,12-b]quinoxaline-9-carboxamide], for which the EC50 amounted to 21 nM in assay [1]; 7.5 nM in [2]; 17 nM in assay [3]; 12 nM in assay [4]; 12 nM in assay [5]; 4.9 nM in assay [6]. Further, the EC50 in [7] came to 166 nM; in [8], 11 nM; in assay [9], 48 nM; in assay [10], 54 nM.

As to `COc1ccc2nc3c(nc2c1)O[C@H]1CN(C(=O)[C@H](C(C)(C)C)NC(=O)O[C@@H]2C[C@@H]4C[C@@H]4[C@H]2CCCCC3)[C@H](C(=O)N[C@]2(C(=O)NS(=O)(=O)C3(C)CC3)C[C@H]2CC(F)F)[C@@H]1C` [Example 58, (1aS,2aR,6S,9S,10S,11R,23aR,23bS)-6-tert-butyl-N-[(1R,2S)-2-(2,2-difluoroethyl)-1-{[(1-methylcyclopropyl)sulfonyl]carbamoyl}cyclopropyl]-15-methoxy-10-methyl-4,7-dioxo-1a,2,2a,4,5,6,7,10,11,19,20,21,22,23,23a,23b-hexadecahydro-1H,9H-8,11-methanocyclopropa[4′,5′]cyclopenta[1′,2′:18,19][1,10,3,6]dioxadiazacyclononadecino[11,12-b]quinoxaline-9-carboxamide], the EC50 in assay [1] is 12 nM; in assay [2] it was 14 nM; in assay [3] it was 18 nM; in assay [4], 12 nM; in [5], 12 nM; in assay [6], 12 nM. In addition, the EC50 in assay [7] was 134 nM; in [8], 9.7 nM; in assay [9] it was 23 nM; in assay [10], 38 nM.

Consider `CC[C@@H]1[C@@H]2CN(C(=O)[C@H](C(C)(C)C)NC(=O)O[C@@H]3C[C@@H]4C[C@@H]4[C@H]3CCCCC(F)(F)c3nc4ccc(OC)cc4nc3O2)[C@@H]1C(=O)N[C@]1(C(=O)NS(=O)(=O)C2(C)CC2)C[C@H]1C(F)F` [Example 61, (1aS,2aR,6S,9S,10S,11R,23aR,23bS)-6-tert-butyl-N-[(1R,2R)-2-(difluoromethyl)-1-{[(1-methylcyclopropyl)sulfonyl]carbamoyl}cyclopropyl]-10-ethyl-19,19-difluoro-15-methoxy-4,7-dioxo-1a,2,2a,4,5,6,7,10,11,19,20,21,22,23,23a,23b-hexadecahydro-1H,9H-8,11-methanocyclopropa[4′,5′]cyclopenta[1′,2′:18,19][1,10,3,6]dioxadiazacyclononadecino[11,12-b]quinoxaline-9-carboxamide], for which the EC50 in assay [1] is 8.7 nM; in assay [2] (setting [11]), 9.3 nM; in [3], 10 nM; in assay [4], 13 nM; in assay [5] (setting [12]), 12 nM; in [6], 11 nM. Besides, the EC50 in [7] stood at 28 nM; in assay [8], 10 nM; in [9] it was 6.7 nM; in assay [10] (setting [13]), 13 nM.

As for `CC[C@@H]1[C@@H]2CN(C(=O)[C@H](C(C)(C)C)NC(=O)O[C@@]3(C)C[C@@H]3CCCCC(F)(F)c3nc4ccc(OC)cc4nc3O2)[C@@H]1C(=O)N[C@]1(C(=O)NS(=O)(=O)C2(C)CC2)C[C@H]1C(F)F` [Example 64, (1aS,5S,8S,9S,10R,22aS)-5-tert-butyl-N-[(1R,2R)-2-(difluoromethyl)-1-{[(1-methylcyclopropyl)sulfonyl]carbamoyl}cyclopropyl]-9-ethyl-18,18-difluoro-14-methoxy-1a-methyl-3,6-dioxo-1,1a,3,4,5,6,9,10,18,19,20,21,22,22a-tetradecahydro-8H-7,10-methanocyclopropa[18,19][1,10,3,6]dioxadiazacyclononadecino[11,12-b]quinoxaline-8-carboxamide], the EC50 in [1] is 48 nM; in assay [2] (setting [11]) it was 17 nM; in assay [3], 50 nM; in assay [4] it was 100 nM; in assay [5] (setting [12]), 37 nM; in assay [6] it was 34 nM. The EC50 in [7] worked out at 671 nM; in assay [8], 38 nM; in [9], 104 nM; in assay [10] (setting [13]), 256 nM.

Turning to `CCC[C@@H]1[C@@H]2CN(C(=O)[C@H](C(C)(C)C)NC(=O)O[C@@H]3C[C@H]3CCCCC(F)(F)c3nc4ccc(OC)cc4nc3O2)[C@@H]1C(=O)N[C@]1(C(=O)NS(=O)(=O)C2(C)CC2)C[C@H]1C(F)F` [Example 65, (1aR,5S,8S,9S,10R,22aR)-5-tert-butyl-N-[(1R,2R)-2-(difluoromethyl)-1-{[(1-methylcyclopropyl)sulfonyl]carbamoyl}cyclopropyl]-18,18-difluoro-14-methoxy-3,6-dioxo-9-propyl-1,1a,3,4,5,6,9,10,18,19,20,21,22,22a-tetradecahydro-8H-7,10-methanocyclopropa[18,19][1,10,3,6]dioxadiazacyclononadecino[11,12-b]quinoxaline-8-carboxamide], the EC50 turned out to be 7.7 nM in assay [1]; 6.4 nM in [2]; 8.1 nM in assay [3]; 12 nM in assay [4]; 9.4 nM in [5]; 8.1 nM in [6]. Moreover, the EC50 is 30 nM in assay [7], 8.4 nM in assay [8], 11 nM in [9] and 17 nM in assay [10].
